According to PMC5218480 (PLoS ONE, 2017):

Tested on: MV-4-11 cells
Experiment: Gene expression microarray analysis (Affymetrix PrimeView) and GSEA
Type: cell-based, human
Design: RFU PODN (11730768_x_at) / Fold change /veh PODN (11730768_x_at) / RFU LINC00158 (11744669_a_at) / Fold change /veh LINC00158 (11744669_a_at) / RFU DUSP10 (11751237_a_at) / Fold change /veh DUSP10 (11751237_a_at) / RFU ID3 (11757404_x_at) / Fold change /veh ID3 (11757404_x_at) / RFU PLEKHG5 (11737974_s_at) / Fold change /veh PLEKHG5 (11737974_s_at) / RFU LRRC4B (11730491_at) / Fold change /veh LRRC4B (11730491_at) / RFU GIMAP4 (11747438_a_at) / Fold change /veh GIMAP4 (11747438_a_at) / RFU KRT8 (11758183_x_at) / Fold change /veh KRT8 (11758183_x_at) / RFU CNN1 (11734310_a_at) / Fold change /veh CNN1 (11734310_a_at) / RFU VPS37D (11726825_at) / Fold change /veh VPS37D (11726825_at) / RFU C10orf10 (11716522_x_at) / Fold change /veh C10orf10 (11716522_x_at) / RFU KIR2DL2 /// KIR2DL4 /// KIR2DL5A /// KIR2DL5B /// KIR2DS1 /// KIR2DS2 /// KIR2DS3 /// KIR2DS4 /// KIR3DL3 /// KIR3DL3 /// KIR3DS1 (11738374_at) / Fold change /veh KIR2DL2 /// KIR2DL4 /// KIR2DL5A /// KIR2DL5B /// KIR2DS1 /// KIR2DS2 /// KIR2DS3 /// KIR2DS4 /// KIR3DL3 /// KIR3DL3 /// KIR3DS1 (11738374_at) / RFU C1QL1 (11718748_at) / Fold change /veh C1QL1 (11718748_at) / RFU TMPRSS4 (11747572_a_at) / Fold change /veh TMPRSS4 (11747572_a_at) / RFU HAMP (11756126_x_at) / Fold change /veh HAMP (11756126_x_at) / RFU RNFT2 (11725882_a_at) / Fold change /veh RNFT2 (11725882_a_at) / RFU NR4A2 (11747474_a_at) / Fold change /veh NR4A2 (11747474_a_at) / RFU ABCC12 (11746883_a_at) / Fold change /veh ABCC12 (11746883_a_at) / RFU TMEM136 (11760407_x_at) / Fold change /veh TMEM136 (11760407_x_at) / RFU CLDN22 /// WWC2 (11732394_at) / Fold change /veh CLDN22 /// WWC2 (11732394_at) / RFU HLA-DPB1 (11760878_x_at) / Fold change /veh HLA-DPB1 (11760878_x_at) / RFU SPINT1 (11716480_a_at) / Fold change /veh SPINT1 (11716480_a_at) / RFU GAP43 (11754022_s_at) / Fold change /veh GAP43 (11754022_s_at) / RFU A4GNT (11735810_at) / Fold change /veh A4GNT (11735810_at) / RFU PRB3 (11715151_x_at) / Fold change /veh PRB3 (11715151_x_at) / RFU TUBB4B (11761932_at) / Fold change /veh TUBB4B (11761932_at) / RFU CAPN14 (11732068_a_at) / Fold change /veh CAPN14 (11732068_a_at) / RFU TMCC2 (11721928_a_at) / Fold change /veh TMCC2 (11721928_a_at) / RFU IRGQ (11745062_a_at) / Fold change /veh IRGQ (11745062_a_at) / RFU FAM174B (11720279_a_at) / Fold change /veh FAM174B (11720279_a_at) / RFU TMPRSS4 (11748680_a_at) / Fold change /veh TMPRSS4 (11748680_a_at) / RFU FAM212B (11763350_a_at) / Fold change /veh FAM212B (11763350_a_at) / RFU PLEKHG5 (11743358_a_at) / Fold change /veh PLEKHG5 (11743358_a_at) / RFU ZSCAN30 (11745921_a_at) / Fold change /veh ZSCAN30 (11745921_a_at) / RFU CMKLR1 (11741424_a_at) / Fold change /veh CMKLR1 (11741424_a_at) / RFU LOC101060620 /// MAPK8IP1 (11723275_at) / Fold change /veh LOC101060620 /// MAPK8IP1 (11723275_at) / RFU SPTSSB (11747773_x_at) / Fold change /veh SPTSSB (11747773_x_at) / RFU PRSS12 (11739890_at) / Fold change /veh PRSS12 (11739890_at) / RFU BIN1 (11741810_x_at) / Fold change /veh BIN1 (11741810_x_at) / RFU WNT11 (11732464_a_at) / Fold change /veh WNT11 (11732464_a_at) / RFU C10orf10 (11716521_a_at) / Fold change /veh C10orf10 (11716521_a_at) / RFU C5orf56 (11738089_at) / Fold change /veh C5orf56 (11738089_at) / RFU CYB561 (11721691_x_at) / Fold change /veh CYB561 (11721691_x_at) / RFU ANKRD19P (11752326_a_at) / Fold change /veh ANKRD19P (11752326_a_at) / RFU OR2T12 /// OR2T33 /// OR2T8 (11738714_s_at) / Fold change /veh OR2T12 /// OR2T33 /// OR2T8 (11738714_s_at) / RFU VCAN (11748164_a_at) / Fold change /veh VCAN (11748164_a_at) / RFU JSRP1 (11732532_at) / Fold change /veh JSRP1 (11732532_at) / RFU KRTAP10-11 (11738290_x_at) / Fold change /veh KRTAP10-11 (11738290_x_at) / RFU MYO3A (11730013_a_at) / Fold change /veh MYO3A (11730013_a_at) / RFU EBF3 (11725865_a_at) / Fold change /veh EBF3 (11725865_a_at) / RFU CAMK2N1 (11719241_x_at) / Fold change /veh CAMK2N1 (11719241_x_at) / RFU C5orf56 (11738088_a_at) / Fold change /veh C5orf56 (11738088_a_at) / RFU OLFML3 (11715873_a_at) / Fold change /veh OLFML3 (11715873_a_at) / RFU LOC100653217 /// NTM (11731650_a_at) / Fold change /veh LOC100653217 /// NTM (11731650_a_at) / RFU MAPK11 (11762145_a_at) / Fold change /veh MAPK11 (11762145_a_at) / RFU FIZ1 (11724087_x_at) / Fold change /veh FIZ1 (11724087_x_at) / RFU OASL (11726364_x_at) / Fold change /veh OASL (11726364_x_at) / RFU SOX15 (11748057_x_at) / Fold change /veh SOX15 (11748057_x_at) / RFU CD79A (11719716_a_at) / Fold change /veh CD79A (11719716_a_at) / RFU HIST1H1D (11736915_at) / Fold change /veh HIST1H1D (11736915_at) / RFU CASKIN2 (11723855_a_at) / Fold change /veh CASKIN2 (11723855_a_at) / RFU LOC730098 (11760151_x_at) / Fold change /veh LOC730098 (11760151_x_at) / RFU OR4N2 (11742367_at) / Fold change /veh OR4N2 (11742367_at) / RFU PRRT2 (11749266_a_at) / Fold change /veh PRRT2 (11749266_a_at) / RFU SNX32 (11753110_a_at) / Fold change /veh SNX32 (11753110_a_at) / RFU CDHR5 (11726645_a_at) / Fold change /veh CDHR5 (11726645_a_at) / RFU RCAN1 (11760418_a_at) / Fold change /veh RCAN1 (11760418_a_at) / RFU FAM167A (11723789_a_at) / Fold change /veh FAM167A (11723789_a_at) / RFU FAM26E (11764081_at) / Fold change /veh FAM26E (11764081_at) / RFU ISYNA1 (11749810_s_at) / Fold change /veh ISYNA1 (11749810_s_at) / RFU ACY1 (11761880_at) / Fold change /veh ACY1 (11761880_at) / RFU 11764098_at / Fold change /veh 11764098_at / RFU SAMD14 (11745864_x_at) / Fold change /veh SAMD14 (11745864_x_at) / RFU NPB (11741838_a_at) / Fold change /veh NPB (11741838_a_at) / RFU TMPRSS6 (11731388_a_at) / Fold change /veh TMPRSS6 (11731388_a_at) / RFU KRTAP10-2 (11738614_at) / Fold change /veh KRTAP10-2 (11738614_at) / RFU ARHGAP8 /// PRR5-ARHGAP8 (11727945_x_at) / Fold change /veh ARHGAP8 /// PRR5-ARHGAP8 (11727945_x_at) / RFU KRTAP5-7 /// NADSYN1 (11734609_at) / Fold change /veh KRTAP5-7 /// NADSYN1 (11734609_at) / RFU RASL12 (11751679_a_at) / Fold change /veh RASL12 (11751679_a_at) / RFU CDKN2B (11736163_a_at) / Fold change /veh CDKN2B (11736163_a_at) / RFU PRF1 (11729649_at) / Fold change /veh PRF1 (11729649_at) / RFU, ZNF638 /// ZNF638-IT1 / Fold change vs veh, ZNF638 /// ZNF638-IT1 / RFU, PANK3 / Fold change vs veh, PANK3 / RFU, SH3YL1 / Fold change vs veh, SH3YL1 / RFU, ZEB2 / Fold change vs veh, ZEB2 / RFU, NRIP1 / Fold change vs veh, NRIP1 / RFU, PTTG1IP / Fold change vs veh, PTTG1IP / RFU, CAPN2 / Fold change vs veh, CAPN2 / RFU, MED14 / Fold change vs veh, MED14 / RFU, SNORA58 / Fold change vs veh, SNORA58 / RFU, C1orf63 / Fold change vs veh, C1orf63 / RFU, LRRFIP1 / Fold change vs veh, LRRFIP1 / RFU, NDUFAF7 / Fold change vs veh, NDUFAF7 / RFU, SLC12A2 / Fold change vs veh, SLC12A2 / RFU, IBTK / Fold change vs veh, IBTK / RFU, ESF1 / Fold change vs veh, ESF1 / Fold change vs veh, TMEM50B / RFU, TAOK1 / Fold change vs veh, TAOK1 / RFU, ACBD3 / Fold change vs veh, ACBD3 / RFU, TMA16 / Fold change vs veh, TMA16 / RFU, RWDD3 / Fold change vs veh, RWDD3 / RFU, BCAT1 / Fold change vs veh, BCAT1 / RFU, EDEM3 / Fold change vs veh, EDEM3 / RFU, TMEM33 / Fold change vs veh, TMEM33 / RFU, WDR75 / Fold change vs veh, WDR75 / RFU, AHCTF1 / Fold change vs veh, AHCTF1 / RFU, TFRC / Fold change vs veh, TFRC / RFU, ZDHHC17 / Fold change vs veh, ZDHHC17 / RFU, NOM1 / Fold change vs veh, NOM1 / RFU, ARL8B / Fold change vs veh, ARL8B / RFU, ZBTB11 / Fold change vs veh, ZBTB11 / RFU, TAMM41 / Fold change vs veh, TAMM41 / RFU, KIAA1704 /// LOC100996395 / Fold change vs veh, KIAA1704 /// LOC100996395 / RFU, ING1 / Fold change vs veh, ING1 / RFU, TRMT61B / Fold change vs veh, TRMT61B / RFU, FUBP3 / Fold change vs veh, FUBP3 / RFU, TP53 / Fold change vs veh, TP53 / RFU, TNKS2 / Fold change vs veh, TNKS2 / RFU, ZFP14 / Fold change vs veh, ZFP14 / RFU, ACTR2 / Fold change vs veh, ACTR2 / RFU, PPP3R1 / Fold change vs veh, PPP3R1 / RFU, PIK3R1 / Fold change vs veh, PIK3R1 / RFU, HNRNPA1 / Fold change vs veh, HNRNPA1 / RFU, RNF170 / Fold change vs veh, RNF170 / RFU, ZNF28 / Fold change vs veh, ZNF28 / RFU, RNGTT / Fold change vs veh, RNGTT / RFU, OGT / Fold change vs veh, OGT / RFU, BRD1 / Fold change vs veh, BRD1 / RFU, MARS / Fold change vs veh, MARS / RFU, ZNF655 / Fold change vs veh, ZNF655 / RFU, FAHD1 / Fold change vs veh, FAHD1 / RFU, BDP1 / Fold change vs veh, BDP1 / RFU, LRRCC1 / Fold change vs veh, LRRCC1 / RFU, ARID1A / Fold change vs veh, ARID1A / RFU, ZNF146 / Fold change vs veh, ZNF146 / RFU, ZNF330 / Fold change vs veh, ZNF330 / RFU, GPN3 / Fold change vs veh, GPN3 / RFU, C9orf123 / Fold change vs veh, C9orf123 / RFU, N4BP2L2 / Fold change vs veh, N4BP2L2 / RFU, ARFIP1 / Fold change vs veh, ARFIP1 / RFU, FAM179B / Fold change vs veh, FAM179B / RFU, BCL10 / Fold change vs veh, BCL10 / RFU, UHRF1BP1L / Fold change vs veh, UHRF1BP1L / RFU, BET1 / Fold change vs veh, BET1 / RFU, CNOT2 / Fold change vs veh, CNOT2 / RFU, ZNF268 / Fold change vs veh, ZNF268 / Fold change vs veh, ZNF507 / RFU, DGCR2 / Fold change vs veh, DGCR2 / RFU, WDSUB1 / Fold change vs veh, WDSUB1 / Fold change vs veh, HSP90B1 /// MIR3652 / RFU, ADSS / Fold change vs veh, ADSS / RFU, GK / Fold change vs veh, GK / RFU, ZNF148 / Fold change vs veh, ZNF148 / RFU, TAF9 / Fold change vs veh, TAF9 / RFU, SLC1A5 / Fold change vs veh, SLC1A5 / RFU, SLMO2 / Fold change vs veh, SLMO2 / RFU, ABCC4 / Fold change vs veh, ABCC4 / RFU, LOC101060439 /// RAP1B / Fold change vs veh, LOC101060439 /// RAP1B / RFU, RFX7 / Fold change vs veh, RFX7 / RFU, GTPBP10 / Fold change vs veh, GTPBP10 / RFU, CNEP1R1 / Fold change vs veh, CNEP1R1 / RFU, BIVM-ERCC5 /// ERCC5 / Fold change vs veh, BIVM-ERCC5 /// ERCC5 / RFU, ILF3 / Fold change vs veh, ILF3 / RFU 11762660_at / Fold change /veh 11762660_at / RFU VCAN (11757783_s_at) / Fold change /veh VCAN (11757783_s_at) / RFU DDX43 (11728927_at) / Fold change /veh DDX43 (11728927_at) / RFU KRT8 (11758188_x_at) / Fold change /veh KRT8 (11758188_x_at) / RFU NKD1 (11759106_at) / Fold change /veh NKD1 (11759106_at) / RFU SRD5A1 (11742802_a_at) / Fold change /veh SRD5A1 (11742802_a_at) / RFU TPSAB1 /// TPSB2 (11721975_s_at) / Fold change /veh TPSAB1 /// TPSB2 (11721975_s_at) / RFU GSTM3 (11746129_a_at) / Fold change /veh GSTM3 (11746129_a_at) / RFU IL23R (11737362_x_at) / Fold change /veh IL23R (11737362_x_at) / RFU TMEM51 (11727254_a_at) / Fold change /veh TMEM51 (11727254_a_at) / RFU PIWIL2 (11732686_x_at) / Fold change /veh PIWIL2 (11732686_x_at) / RFU ORM1 (11744905_x_at) / Fold change /veh ORM1 (11744905_x_at) / RFU CCDC152 (11743942_at) / Fold change /veh CCDC152 (11743942_at) / RFU ECM1 (11717891_a_at) / Fold change /veh ECM1 (11717891_a_at) / RFU IL23R (11748794_a_at) / Fold change /veh IL23R (11748794_a_at) / RFU TNFAIP8L3 (11732012_x_at) / Fold change /veh TNFAIP8L3 (11732012_x_at) / RFU MBOAT4 (11741988_at) / Fold change /veh MBOAT4 (11741988_at) / RFU 11764193_at / Fold change /veh 11764193_at / RFU TMEM53 (11763286_at) / Fold change /veh TMEM53 (11763286_at) / RFU MAGEB2 (11727129_at) / Fold change /veh MAGEB2 (11727129_at) / RFU TMEM200A (11744735_a_at) / Fold change /veh TMEM200A (11744735_a_at) / RFU CCDC152 (11751479_a_at) / Fold change /veh CCDC152 (11751479_a_at) / RFU FAM211A (11726209_a_at) / Fold change /veh FAM211A (11726209_a_at) / RFU RGS16 (11746705_a_at) / Fold change /veh RGS16 (11746705_a_at) / RFU VCAN (11755009_s_at) / Fold change /veh VCAN (11755009_s_at) / RFU RHOB (11743442_s_at) / Fold change /veh RHOB (11743442_s_at) / RFU RGS16 (11720943_a_at) / Fold change /veh RGS16 (11720943_a_at) / RFU RGS16 (11720944_at) / Fold change /veh RGS16 (11720944_at) / RFU, VPS4B / Fold change vs veh, VPS4B / RFU, CREB1 / Fold change vs veh, CREB1 / RFU, DNAJC13 / Fold change vs veh, DNAJC13 / RFU, GNAQ / Fold change vs veh, GNAQ / RFU, CDK5R1 / Fold change vs veh, CDK5R1 / RFU, ZRANB3 / Fold change vs veh, ZRANB3 / RFU, CUL4A / Fold change vs veh, CUL4A / RFU, CCNY / Fold change vs veh, CCNY / RFU, UFL1 / Fold change vs veh, UFL1 / RFU, COG3 / Fold change vs veh, COG3 / RFU, DIAPH2 / Fold change vs veh, DIAPH2 / RFU, SKA2 / Fold change vs veh, SKA2 / RFU, AFF3 / Fold change vs veh, AFF3 / RFU, LMF1 / Fold change vs veh, LMF1 / RFU, IPO11 / Fold change vs veh, IPO11 / RFU, DFFB / Fold change vs veh, DFFB / RFU, FOXP1 / Fold change vs veh, FOXP1 / RFU, CARD8 / Fold change vs veh, CARD8 / RFU, STRN3 / Fold change vs veh, STRN3 / RFU, ADK / Fold change vs veh, ADK / RFU, RASSF2 / Fold change vs veh, RASSF2 / RFU, WIPF1 / Fold change vs veh, WIPF1 / RFU, LARP1B / Fold change vs veh, LARP1B / RFU, RASA1 / Fold change vs veh, RASA1 / RFU, RB1 / Fold change vs veh, RB1 / RFU, PPFIA1 / Fold change vs veh, PPFIA1 / RFU, MAT2A / Fold change vs veh, MAT2A / RFU, CCT5 / Fold change vs veh, CCT5 / RFU, WDR92 / Fold change vs veh, WDR92 / RFU, CUX1 / Fold change vs veh, CUX1 / RFU, TTC7A / Fold change vs veh, TTC7A / RFU, TMEM135 / Fold change vs veh, TMEM135 / RFU, DEPTOR / Fold change vs veh, DEPTOR / RFU, CPM / Fold change vs veh, CPM / RFU, DNAJB6 / Fold change vs veh, DNAJB6 / RFU, CACNA2D3 / Fold change vs veh, CACNA2D3 / RFU, DTX4 / Fold change vs veh, DTX4 / RFU, TFCP2 / Fold change vs veh, TFCP2 / RFU, GMCL1 /// GMCL1P1 / Fold change vs veh, GMCL1 /// GMCL1P1 / RFU, AEBP2 / Fold change vs veh, AEBP2 / RFU, SNHG1 /// SNORD22 /// SNORD25 /// SNORD26 /// SNORD27 /// SNORD28 /// SNORD29 /// SNORD31 / Fold change vs veh, SNHG1 /// SNORD22 /// SNORD25 /// SNORD26 /// SNORD27 /// SNORD28 /// SNORD29 /// SNORD31 / Fold change (Aza/veh), C12orf56 (ProbeSet 11735607_a_at) / Fold change (ACY-1035/veh), C12orf56 (ProbeSet 11735607_a_at) / Fold change (Aza/veh), FGFR1OP (ProbeSet 11751329_s_at) / Fold change (ACY-1035/veh), FGFR1OP (ProbeSet 11751329_s_at) / Fold change (Aza/veh), VPS36 (ProbeSet 11739960_a_at) / Fold change (ACY-1035/veh), VPS36 (ProbeSet 11739960_a_at) / RFU SYPL1 (11715823_x_at) / Fold change /veh SYPL1 (11715823_x_at) / RFU IGFBP7 (11715501_s_at) / Fold change /veh IGFBP7 (11715501_s_at) / RFU REEP3 (11722064_at) / Fold change /veh REEP3 (11722064_at) / RFU IGLL1 (11728026_x_at) / Fold change /veh IGLL1 (11728026_x_at): dose or concentration left out as unconfirmed
Settings: MV-4-11 cells, 48 hours

With `Nc1ccc(-c2cccs2)cc1NC(=O)c1ccc2c(c1)cc(C1CC1)n2CCN1CCOCC1` [ACY-1035] the “RFU PRF1 (11729649_at)” value was 18.67 RFU.
